Literature values, collected in US10736868B2, “Compositions comprising rumenic acid-rich conjugated linoleic acid for brain health” (STEPAN SPECIALTY PRODUCTS, LLC, priority 2016, dated 2020).
Where two headings read alike, the source gives them in different places.

Columns and labels:
PPARγ [1] = biological target: T1, PPARγ (Mus musculus, UniProt P37238); conditions: mouse macrophage cells
T1 construct: host or cells: mouse macrophage cells
T1 sequence (P37238 1-505): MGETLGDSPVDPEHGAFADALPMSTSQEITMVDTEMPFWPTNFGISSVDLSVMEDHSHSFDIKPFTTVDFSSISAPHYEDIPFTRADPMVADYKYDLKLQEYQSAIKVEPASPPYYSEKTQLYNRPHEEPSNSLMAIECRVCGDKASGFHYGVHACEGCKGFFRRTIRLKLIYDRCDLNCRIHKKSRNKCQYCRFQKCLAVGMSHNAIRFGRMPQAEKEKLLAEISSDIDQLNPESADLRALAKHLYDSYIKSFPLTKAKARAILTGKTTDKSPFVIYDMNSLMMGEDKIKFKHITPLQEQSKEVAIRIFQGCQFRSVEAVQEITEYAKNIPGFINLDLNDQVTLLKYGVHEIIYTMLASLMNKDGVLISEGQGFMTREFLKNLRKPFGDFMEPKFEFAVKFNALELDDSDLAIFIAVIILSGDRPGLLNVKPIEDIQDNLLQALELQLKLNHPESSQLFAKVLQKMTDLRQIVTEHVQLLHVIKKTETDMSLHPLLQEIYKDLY

[2] = tested on: allergic responses mediated by inflammation; conditions: 8 weeks; young men and women with birch pollen allergy
PPARγ [3] = biological target: T2, PPARγ (Homo sapiens, UniProt P37231); conditions: human epithelial cells
T2 construct: host or cells: human epithelial cells
T2 sequence (P37231 1-505): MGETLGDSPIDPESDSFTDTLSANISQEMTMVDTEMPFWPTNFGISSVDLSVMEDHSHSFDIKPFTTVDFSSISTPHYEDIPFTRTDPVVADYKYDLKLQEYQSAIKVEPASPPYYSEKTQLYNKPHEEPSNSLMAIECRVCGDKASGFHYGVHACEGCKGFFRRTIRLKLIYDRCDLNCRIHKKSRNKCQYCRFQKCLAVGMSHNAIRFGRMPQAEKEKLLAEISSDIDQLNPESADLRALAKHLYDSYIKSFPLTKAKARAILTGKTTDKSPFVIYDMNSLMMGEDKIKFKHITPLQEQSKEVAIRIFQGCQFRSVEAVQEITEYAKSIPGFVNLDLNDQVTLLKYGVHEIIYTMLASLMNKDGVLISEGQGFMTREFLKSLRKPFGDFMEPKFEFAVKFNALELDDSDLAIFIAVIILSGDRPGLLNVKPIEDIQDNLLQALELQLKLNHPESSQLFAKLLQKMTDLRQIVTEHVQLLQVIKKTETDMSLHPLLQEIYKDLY

cognitive function [4] = conditions: hypertensive older adults
cognitive function [5] = conditions: hypertensive older adults; remark: listed apart in the source

## CCCCCC/C=C/C=C\CCCCCCCC(=O)O [RA, cis-9, trans-11 linoleic acid]
PPARγ [1]
  PPARγ activation: activated
[2]
  allergic responses mediated by inflammation: reduced
PPARγ [3]
  inflammatory responses via activation of PPARγ: reduced

## CCCCc1nc(Cl)c(CO)n1Cc1ccc(-c2ccccc2-c2nn[nH]n2)cc1 [losartan]
Cognitive function [4]
  verbal fluency: not
  word list memory and recall: improved

## CCCCC(=O)N(Cc1ccc(-c2ccccc2-c2nnn[nH]2)cc1)[C@H](C(=O)O)C(C)C [valsartan]
Cognitive function [5]
  identification, verbal fluency, or word list recognition: did not influence
  word list memory and recall: improved
